Like-named read-outs stand apart in the source and are kept apart here.
Assays:
[1] = test system: PC3; test: PC-3 proliferation, BrdU uptake; type: cell-based; details: Homo sapiens
[2] = test system: CD3+ cells; test: Proliferation of CD3+ cells purified from PBMC, BrdU; type: cell-based; details: Homo sapiens, ConA-stimulated, slightly higher than, read-out: IC50 proliferation of isolated CD3+ cells
Protocol: (§1) Blood samples were taken from healthy donors and loaded on a Ficoll density gradient to purify the PBMC population. T cells were purified by human anti-CD3 using an autoMACS instrument (Miltenyi Biotec, Bergisch-Gladbach, Germany), according to the manufacturer's instructions. The identity of T cells was confirmed by flow cytometry, as they stained positive for CD3. Cells were stimulated with ConA (10 μg/ml), ODN2006 (0.5 μg/ml; Enzo Life Sciences), or LPS (50 μg/ml; Sigma-Aldrich, Steinheim, Germany), for 72 h in the presence of the inhibitor, and their proliferation was measured in the BrdU incorporation assay as will be later described.
(§2) Proliferation was assessed by BrdU incorporation using a colorimetric ELISA kit (Roche, Germany). Subsequent to labeling with 10 μM BrdU, DNA was denatured and the cells were incubated with anti-BrdU-POD, prior to the addition of colorimetric substrate (TMB). The reaction product was quantified by measuring absorbance at 450 nm in an ELISA plate reader (ELx800 BIO-TEK Instruments Inc.).
(§3) PBMC consist of a mixture of mononucleated cells, mostly T cells. To identify the cell type that was inhibited by 2, we first purified T cells from PBMC with an autoMACS apparatus (Miltenyi Biotec), using anti-CD3 antibodies. We were now able to compare three cell populations: total PBMC, CD3+ cells purified from PBMC, and PBMC that had been depleted of CD3+ cells. […]

[3] = test system: PBMC depleted of CD3+ cells; test: Proliferation of PBMC depleted of CD3+ cells, BrdU; type: cell-based; details: Homo sapiens, stimulated by ODN2006 or LPS, stated as similar to ~0.5 μM, read-out: IC50 for PBMCs depleted of CD3+ cells
Protocol: as §1, §2, §3

[4] = test system: IL-2 secretion by 2C splenocytes stimulated by irradiated BALB/c splenocytes; test: IL-2 levels in MLR supernatants; type: cell-based, mouse; details: 24, 48 and 72 h MLR; compound 2 up to 1 μM
Protocol: In the mixed lymphocyte reaction, stimulator cells cause responder cells to proliferate, owing to alloreactivity [Reich-Zeliger et al., 2004]. Splenocytes from 2c mice were stimulated by irradiated splenocytes from BALB/c mice in the presence of the evaluated compound at the concentrations specified. Cultures were incubated for 72 hours in 96-well plates.
Jurkat or PBMC cells were treated for 12 h with 1 μM, 0.5 μM or no inhibitor. Cells (1×10^6) were plated in 24-well plates (Nunc) and stimulated by C305 (dilution 1:500), anti-CD28 (1:100), PMA (50 ng/ml) or ionomycin (1 μM) for 12 h. Alternately, cells were stimulated for 24, 48 and 72 h in MLR. After stimulation cells were centrifuged at 130×g for 5 minutes at room temperature.
Supernatants were collected and IL-2 was assayed using the IL-2 ELISA kit (BioSource International USA, KH0022) according to the manufacturer's instructions. Absorbance was read at 450 nm in an ELISA plate reader (ELx800 BIO-TEK Instruments Inc.).
In vivo, T cells are stimulated by neighboring cells. In order to test the effect of 2 on cell-stimulated IL-2 secretion, the supernatants of splenocytes after 24, 48 and 72 h MLR were collected and analyzed for their IL-2 levels (FIG. 5C). […] At higher concentrations, no viable cells remained.

[5] = test system: NIH3T3; test: NIH3T3 proliferation, BrdU uptake; type: cell-based; details: Mus musculus
Protocol: Cells were depleted of fetal calf serum (FCS) for 12 hours. They were then stimulated to proliferate by addition of ConA (10 μg/ml) for PBMC from healthy individuals and for Jurkat cells, FCS (10%) for HEK293 and A375 cells, PDGF (30 ng/ml) for NIH 3T3 cells, and EGF (30 ng/ml) for MDA-MB-231, Cells (1×10^5) were cultured in 96-well plates for 3 days in the presence or absence of inhibitors at the concentrations specified in the text. Each condition was tested in duplicate wells.
as §2
To characterize the mode of action of 2 (S101) in more detail, we first examined whether 2 inhibits non-hematopoietic cell lines. We studied the effect of 2 on the growth of four cell lines: NIH 3T3 (mouse embryonic fibroblasts), A-431 (human vulval carcinoma cells), MDA-MB-468 (human breast carcinoma cells), and PANC-1 (human pancreatic carcinoma cells) (FIGS. 1A-B). We also tested the inhibitors on human keratinocytes. […]

COc1cc(-c2nc(Nc3ccc(C)cc3)c3ccccc3n2)cc(OC)c1OC [Compound 2, N-p-tolyl-2-(3,4,5-trimethoxyphenyl)quinazolin-4-amine]
IC50 ([1]; PC3, non-stimulated, read-out: IC50 of non-stimulated cells): ~10 µM | IC50 ([1]; PC3, stimulated, read-out: IC50 of stimulated cells): > 10 µM | IC50 [2]: > 0.1 µM | IC50 [3]: ~0.5 µM | IL-2 levels in MLR supernatants [4]: no visible decrease | IC50 ([5]; NIH3T3, PDGF (30 ng/ml) activated, read-out: IC50 of stimulated cells): ~7 µM | IC50 ([5]; NIH3T3, non-stimulated, read-out: IC50 of non-stimulated cells): ~3 µM

From patent US8759363B2, “Quinazoline-based T cell proliferation inhibitors” (Yissum Research Development Company of the Hebrew …, priority 2010, dated 2014)
